Values joined by “and” are separate entries in the source; they are usually repeats but may differ in a detail not shown here. Equal entries are not always repeated. Where two headings read alike, the source gives them in different places.
Test: Mouse pharmacokinetics in CD-1 mice (blood, kidney, liver, lung)
Assay type: in vivo
Description: For the PK study, a total of 42 male CD-1 mice weighing ~20-35 g were acquired from Lingchang/Vital River Laboratory Animal Co., Ltd. (Shanghai/Beijing, P.R. China) and divided into 2 treatment groups. […] was dosed with one low dose (1 mg/kg) and one high dose group (20 mg/kg). For the low-dose groups, nine animals were required for organ quantification with termination at 24 hours. For the high-dose groups, 12 animals were required for organ quantification with termination at 48 hours. The animal was administered either 1 mg/kg or 20 mg/kg of formulation solution (10% HP-β-CD in acetate buffer at pH 4.0) by IV bolus through the left lateral tail vein injection. […] Blood samples were placed on wet ice, mixed, then frozen and stored in a freezer set to -60 °C or lower until analysis. After the blood samples were collected at the terminal time points, the animals were sacrificed, and the liver, lung and kidney were harvested. The tissues were rinsed in cold water and then blotted on filter papers, weighed and homogenized using pre-cooled water at the ratio of 1:4. The tissue homogenate samples were kept at -70 °C until analysis. […] Working standard solutions were spiked into 25 μL of blank matrix on the sample plate. […] The supernatant (20 μL) was transferred into the MS injection plate, then diluted with water before injection for LC-MS/MS analysis. The concentrations of […] were quantified by an LC-MS/MS method. The LC-MS/MS system was a Waters Acquity UPLC System (Milford, MA) coupled to a Sciex Triple Quad 6500 Plus mass spectrometer (AB Sciex, Foster City, CA). The aqueous mobile phase for the analysis was 0.1% formic acid and 2 mM ammonium formate in water/ACN (v:v, 95:5) (A), and the organic mobile phase was 0.1% formic acid and 2 mM ammonium formate in ACN/water (v:v, 95:5) (B). […] Column temperature was set at 50 °C. […] The flow rate was set at 0.7 mL/min. […] The lower limit of quantitation in all matrices was 5.1 ng/mL. The mean time concentration profile was generated for each group, and an overall AUC was then calculated with these sparse samples of rats and mice. […] The following parameters were estimated whenever possible: C0, Back-extrapolated concentration at time 0; Cmax, Maximum observed concentration; Tmax, Time of maximum observed concentration; AUC0-t, Area under the concentration-time curve from hour 0 to the last measurable concentration, estimated by the linear trapezoidal rule; AUC0-336, Area under the concentration-time curve from hour 0 to hour 336, estimated by the linear trapezoidal rule; DN AUC0-336, Dose normalized AUC0-336, calculated as AUC0-336/dose level; […] AUC0-∞ = AUC0-t + Ct/λz, where Ct is the last measurable concentration and λz is the elimination rate constant; t1/2, Elimination half-life, determined by ln(2)/λz; CL, Clearance, calculated as dose/AUC0-inf; Vd, Volume of distribution based on the terminal phase, calculated as: dose/(λz × AUC0-∞) Nominal doses and sampling times were used. […] Embedded zeros were excluded from kinetic analysis.

For `Cc1ncsc1-c1ccc(C(C)NC(=O)C2CC(O)CN2C(=O)C(c2cc(N3CCC(CN4CCC(OC5CC(Oc6cc(N7C8CCC7CN(c7cc(-c9ccccc9O)nnc7N)C8)ccn6)C5)CC4)CC3)no2)C(C)C)cc1` (stereo not shown) [A947], the concentration at 0.083 h (Blood, 0.083 h, 1 mg/kg IV, individual animals, read-out: Concentration (µM) from 1 mg/kg Dosing Blood) was 0.351 µM and 0.406 µM, the concentration at 8 h (Blood, 0.083 h, 20 mg/kg IV, individual animals, read-out: Concentration (µM) from 20 mg/kg Dosing Blood) was 11.332 µM and 8.845 µM and the concentration at 0.083 h (Blood, 0.25 h, 1 mg/kg IV, individual animals, read-out: Concentration (µM) from 1 mg/kg Dosing Blood) was 0.084 µM and 0.113 µM. For the same molecule, the concentration at 8 h (Blood, 0.25 h, 20 mg/kg IV, individual animals, read-out: Concentration (µM) from 20 mg/kg Dosing Blood) was 3.265 µM and 3.4 µM, the concentration at 0.083 h (Blood, 0.5 h, 1 mg/kg IV, individual animals, read-out: Concentration (µM) from 1 mg/kg Dosing Blood) was 0.044 µM and 0.066 µM and the concentration at 8 h (Blood, 0.5 h, 20 mg/kg IV, individual animals, read-out: Concentration (µM) from 20 mg/kg Dosing Blood) was 1.604 µM and 1.652 µM. The concentration at 0.083 h (Blood, 1 h, 1 mg/kg IV, individual animals, read-out: Concentration (µM) from 1 mg/kg Dosing Blood) was 0.02 µM and 0.026 µM, the concentration at 8 h (Blood, 1 h, 20 mg/kg IV, individual animals, read-out: Concentration (µM) from 20 mg/kg Dosing Blood) was 0.769 µM and 0.821 µM and the concentration at 0.083 h (Blood, 2 h, 1 mg/kg IV, individual animals, read-out: Concentration (µM) from 1 mg/kg Dosing Blood) was 0.009 µM and 0.013 µM. For the same molecule, the concentration at 8 h (Blood, 2 h, 20 mg/kg IV, individual animals, read-out: Concentration (µM) from 20 mg/kg Dosing Blood) was 0.221 µM and 0.24 µM, the “Concentration (µM) from 1 mg/kg Dosing Blood” value (Blood, 4 h, 1 mg/kg IV, individual animals, BLOQ <5.1 ng/mL) was “BLOQ *” and the concentration at 0.083 h (Blood, 4 h, 1 mg/kg IV, individual animals, BLOQ <5.1 ng/mL, read-out: Concentration (µM) from 1 mg/kg Dosing Blood) was 0.006 µM. For the same molecule, the concentration at 8 h (Blood, 4 h, 20 mg/kg IV, individual animals, read-out: Concentration (µM) from 20 mg/kg Dosing Blood) was 0.212 µM and 0.306 µM and 0.093 µM and 0.117 µM and 0.098 µM and 0.1 µM, the “Concentration (µM) from 1 mg/kg Dosing Blood” value (Blood, 8 h, 1 mg/kg IV, individual animals, BLOQ <5.1 ng/mL) was “BLOQ *” and the concentration at 8 h (Blood, 8 h, 20 mg/kg IV, individual animals, read-out: Concentration (µM) from 20 mg/kg Dosing Blood) was 0.067 µM and 0.056 µM and 0.036 µM and 0.037 µM. For the same molecule, the “Concentration (µM) from 1 mg/kg Dosing Blood” value (Blood, 12 h, 1 mg/kg IV, individual animals, BLOQ <5.1 ng/mL) was “BLOQ *”, the concentration at 8 h (Blood, 12 h, 20 mg/kg IV, individual animals, read-out: Concentration (µM) from 20 mg/kg Dosing Blood) was 0.015 µM and 0.017 µM and the “Concentration (µM) from 1 mg/kg Dosing Blood” value (Blood, 24 h, 1 mg/kg IV, individual animals, BLOQ <5.1 ng/mL) was “BLOQ *”. For the same molecule, the “Concentration (µM) from 20 mg/kg Dosing Blood” value (Blood, 24 h, 20 mg/kg IV, individual animals, BLOQ <5.1 ng/mL) was “BLOQ *”, the “Concentration (µM) from 20 mg/kg Dosing Blood” value (Blood, 48 h, 20 mg/kg IV, individual animals, BLOQ <5.1 ng/mL) was “BLOQ *” and the concentration at 24 h (Kidney, 4 h, 1 mg/kg IV, individual animals, read-out: Concentration (µM) from 1 mg/kg Dosing Kidney) was 0.541 µM and 0.391 µM. For the same molecule, the concentration at 8 h (Kidney, 4 h, 20 mg/kg IV, individual animals, read-out: Concentration (µM) from 20 mg/kg Dosing Kidney) was 14.213 µM and 10.852 µM, the concentration at 24 h (Kidney, 8 h, 1 mg/kg IV, individual animals, read-out: Concentration (µM) from 1 mg/kg Dosing Kidney) was 0.341 µM and 0.338 µM and the concentration at 8 h (Kidney, 8 h, 20 mg/kg IV, individual animals, read-out: Concentration (µM) from 20 mg/kg Dosing Kidney) was 11.428 µM and 7.712 µM. The concentration at 24 h (Kidney, 24 h, 1 mg/kg IV, individual animals, read-out: Concentration (µM) from 1 mg/kg Dosing Kidney) was 0.025 µM and 0.027 µM, the concentration at 8 h (Kidney, 24 h, 20 mg/kg IV, individual animals, read-out: Concentration (µM) from 20 mg/kg Dosing Kidney) was 0.295 µM and 0.508 µM and the concentration at 8 h (Kidney, 48 h, 20 mg/kg IV, individual animals, read-out: Concentration (µM) from 20 mg/kg Dosing Kidney) was 0.083 µM and 0.066 µM. The concentration at 24 h (Liver, 4 h, 1 mg/kg IV, individual animals, read-out: Concentration (µM) from 1 mg/kg Dosing Liver) was 0.069 µM and 0.098 µM, the concentration at 8 h (Liver, 4 h, 20 mg/kg IV, individual animals, read-out: Concentration (µM) from 20 mg/kg Dosing Liver) was 66.456 µM and 51.09 µM and 27.754 µM and the concentration at 24 h (Liver, 8 h, 1 mg/kg IV, individual animals, read-out: Concentration (µM) from 1 mg/kg Dosing Liver) was 0.039 µM. For the same molecule, the concentration at 8 h (Liver, 8 h, 20 mg/kg IV, individual animals, read-out: Concentration (µM) from 20 mg/kg Dosing Liver) was 18.535 µM and 24.009 µM, the “Concentration (µM) from 1 mg/kg Dosing Liver” value (Liver, 24 h, 1 mg/kg IV, individual animals, BLOQ <5.1 ng/mL) was “BLOQ *” and the concentration at 8 h (Liver, 24 h, 20 mg/kg IV, individual animals, read-out: Concentration (µM) from 20 mg/kg Dosing Liver) was 8.297 µM and 9.7 µM. For the same molecule, the concentration at 8 h (Liver, 48 h, 20 mg/kg IV, individual animals, read-out: Concentration (µM) from 20 mg/kg Dosing Liver) was 1.133 µM and 2.43 µM and 2.132 µM, the concentration at 24 h (Lung, 4 h, 1 mg/kg IV, individual animals, read-out: Concentration (µM) from 1 mg/kg Dosing Lung) was 0.085 µM and 0.099 µM and the concentration at 8 h (Lung, 4 h, 20 mg/kg IV, individual animals, read-out: Concentration (µM) from 20 mg/kg Dosing Lung) was 6.463 µM and 5.695 µM. For the same molecule, the concentration at 24 h (Lung, 8 h, 1 mg/kg IV, individual animals, read-out: Concentration (µM) from 1 mg/kg Dosing Lung) was 0.066 µM and 0.071 µM, the concentration at 8 h (Lung, 8 h, 20 mg/kg IV, individual animals, read-out: Concentration (µM) from 20 mg/kg Dosing Lung) was 2.286 µM and 3.054 µM and the concentration at 24 h (Lung, 24 h, 1 mg/kg IV, individual animals, read-out: Concentration (µM) from 1 mg/kg Dosing Lung) was 0.011 µM and 0.016 µM. For the same molecule, the concentration at 8 h (Lung, 24 h, 20 mg/kg IV, individual animals, read-out: Concentration (µM) from 20 mg/kg Dosing Lung) was 0.718 µM and 0.295 µM and 0.794 µM, the concentration at 8 h (Lung, 48 h, 20 mg/kg IV, individual animals, read-out: Concentration (µM) from 20 mg/kg Dosing Lung) was 0.36 µM and 0.211 µM and 1.402 µM and the half-life (male, CD-1, mouse, blood and tissues (kidney, liver, lung), iv, CD-1 mice IV, dose = c0, matrix = c1 of the line) was 10 to 15 h. It also gave a concentration at 0.25 h (male, CD-1, mouse, blood, intravenous, 1 mg/kg, Blood, 0.25 h, 1 mg/kg IV, individual animals, read-out: Concentration (µM) from 1 mg/kg Dosing Blood) of 0.089 µM, a concentration at 0.25 h (male, CD-1, mouse, blood, intravenous, 1 mg/kg, Blood, 0.25 h, 1 mg/kg IV, mean, read-out: Concentration (µM) from 1 mg/kg Dosing Blood) of 0.095 µM and a concentration at 0.5 h (male, CD-1, mouse, blood, intravenous, 1 mg/kg, Blood, 0.5 h, 1 mg/kg IV, individual animals, read-out: Concentration (µM) from 1 mg/kg Dosing Blood) of 0.055 µM. For the same molecule, the concentration at 0.5 h (male, CD-1, mouse, blood, intravenous, 1 mg/kg, Blood, 0.5 h, 1 mg/kg IV, mean, read-out: Concentration (µM) from 1 mg/kg Dosing Blood) was 0.055 µM, the concentration at 1 h (male, CD-1, mouse, blood, intravenous, 1 mg/kg, Blood, 1 h, 1 mg/kg IV, individual animals, read-out: Concentration (µM) from 1 mg/kg Dosing Blood) was 0.027 µM and the concentration at 1 h (male, CD-1, mouse, blood, intravenous, 1 mg/kg, Blood, 1 h, 1 mg/kg IV, mean, read-out: Concentration (µM) from 1 mg/kg Dosing Blood) was 0.024 µM. For the same molecule, the concentration at 2 h (male, CD-1, mouse, blood, intravenous, 1 mg/kg, Blood, 2 h, 1 mg/kg IV, individual animals, read-out: Concentration (µM) from 1 mg/kg Dosing Blood) was 0.012 µM, the concentration at 2 h (male, CD-1, mouse, blood, intravenous, 1 mg/kg, Blood, 2 h, 1 mg/kg IV, mean, read-out: Concentration (µM) from 1 mg/kg Dosing Blood) was 0.011 µM and the concentration at 12 h (male, CD-1, mouse, blood, intravenous, 20 mg/kg, Blood, 12 h, 20 mg/kg IV, individual animals, read-out: Concentration (µM) from 20 mg/kg Dosing Blood) was 0.019 µM. It also gave a concentration at 12 h (male, CD-1, mouse, blood, intravenous, 20 mg/kg, Blood, 12 h, 20 mg/kg IV, mean, read-out: Concentration (µM) from 20 mg/kg Dosing Blood) of 0.017 µM, a concentration at 24 h (male, CD-1, mouse, blood, intravenous, 20 mg/kg, Blood, 24 h, 20 mg/kg IV, individual animals, BLOQ <5.1 ng/mL, read-out: Concentration (µM) from 20 mg/kg Dosing Blood) of 0.007 µM and a concentration at 24 h (male, CD-1, mouse, blood, intravenous, 20 mg/kg, Blood, 24 h, 20 mg/kg IV, mean, read-out: Concentration (µM) from 20 mg/kg Dosing Blood) of 0.007 µM. The Vd (male, CD-1, mouse, blood, iv, CD-1 mice IV, dose = c0) was 20 to 23 L/kg, the concentration at 0.083 h (male, CD-1, mouse, in vivo, 1 mg/kg, Blood, 0.083 h, 1 mg/kg IV, individual animals, read-out: Concentration (µM) from 1 mg/kg Dosing Blood) was 0.338 µM and the concentration at 0.083 h (male, CD-1, mouse, in vivo, 1 mg/kg, Blood, 0.083 h, 1 mg/kg IV, mean, read-out: Concentration (µM) from 1 mg/kg Dosing Blood) was 0.365 µM. It also gave a concentration at 4 h (male, CD-1, mouse, in vivo, 1 mg/kg, Blood, 4 h, 1 mg/kg IV, individual animals, BLOQ <5.1 ng/mL, read-out: Concentration (µM) from 1 mg/kg Dosing Blood) of 0.005 µM.

From paper PMC11099041, “Tissue distribution and retention drives efficacy of rapidly clearing VHL-based PROTACs” (Communications Medicine, 2024)
